In PubChem BioAssay AID1963972 (Molecular Pharmacology Branch, DTP, NCI, 2024):

Tested on: 945468-187-T-J2-PDC spheroids viability
Assay: Anticancer human tumor 945468-187-T-J2-PDC patient-derived rectal carcinoma cell line growth inhibition [PI3K]
Details: spheroids with HUVEC and MSC; for IC50: curve of first compound; for viability, T/C: stronger effect = lower value
Procedure, shortened: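 Spheroid viability read-out. Co-cultures contained the tumor line plus HUVEC and human MSCs. Each agent was paired with a PI3K inhibitor (inavolisib, alpelisib, duvelisib, copanlisib) across half-log dilutions starting at clinical Cmax, or at 10 microM when Cmax was unknown.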

[1] = second compound 0.0316 µM, first compound 0.0316 µM
[2] = second compound 0.0316 µM, first compound 0.1 µM
[3] = second compound 0.1 µM, first compound 0.0316 µM
[4] = second compound 0.1 µM, first compound 0.1 µM
[5] = second compound 0.316 µM, first compound 0.0316 µM
[6] = second compound 0.316 µM, first compound 0.1 µM
[7] = second compound 1 µM, first compound 0.0316 µM
[8] = second compound 1 µM, first compound 0.1 µM
[9] = second compound 3.16 µM, first compound 0.0316 µM
[10] = second compound 3.16 µM, first compound 0.1 µM
[11] = second compound 10 µM, first compound 0.0316 µM
[12] = second compound 10 µM, first compound 0.1 µM
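Also: spheroids exposed to compounds for seven days before reading.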

`CC(=O)c1c(C)c2cnc(Nc3ccc(N4CCNCC4)cn3)nc2n(C2CCCC2)c1=O` + Cc1nc(NC(=O)N2CCCC2C(N)=O)sc1-c1ccnc(C(C)(C)C(F)(F)F)c1 was tested, and the IC50 (second compound 0.0316 µM) was > 0.1 µM, the IC50 (second compound 0.1 µM) was > 0.1 µM and the IC50 (second compound 0.316 µM) was > 0.1 µM. For the same compound, the IC50 (second compound 1 µM) was > 0.1 µM, the IC50 (second compound 3.16 µM) was > 0.1 µM and the IC50 (second compound 10 µM) was > 0.1 µM. For the same compound, the viability, T/C (second compound 0.0316 µM, first compound 0.000316 µM) was 79.2%, the viability, T/C (second compound 0.0316 µM, first compound 0.001 µM) was 88.4% and the viability, T/C (second compound 0.0316 µM, first compound 0.00316 µM) was 89.4%. For the same compound, the viability, T/C (second compound 0.0316 µM, first compound 0.01 µM) was 121%, the viability, T/C [1] was 79.5% and the viability, T/C [2] was 98.2%. It also gave a viability, T/C (second compound 0.1 µM, first compound 0.000316 µM) of 86.1%, a viability, T/C (second compound 0.1 µM, first compound 0.001 µM) of 84.2% and a viability, T/C (second compound 0.1 µM, first compound 0.00316 µM) of 89.6%. For the same compound, the viability, T/C (second compound 0.1 µM, first compound 0.01 µM) was 84.1%, the viability, T/C [3] was 110% and the viability, T/C [4] was 103%. It also gave a viability, T/C (second compound 0.316 µM, first compound 0.000316 µM) of 93.7%, a viability, T/C (second compound 0.316 µM, first compound 0.001 µM) of 107% and a viability, T/C (second compound 0.316 µM, first compound 0.00316 µM) of 95.5%. It also gave a viability, T/C (second compound 0.316 µM, first compound 0.01 µM) of 88.6%, a viability, T/C [5] of 118% and a viability, T/C [6] of 136%. For the same compound, the viability, T/C (second compound 1 µM, first compound 0.000316 µM) was 118%, the viability, T/C (second compound 1 µM, first compound 0.001 µM) was 110% and the viability, T/C (second compound 1 µM, first compound 0.00316 µM) was 75.7%. It also gave a viability, T/C (second compound 1 µM, first compound 0.01 µM) of 78%, a viability, T/C [7] of 94.9% and a viability, T/C [8] of 90.3%. The viability, T/C (second compound 3.16 µM, first compound 0.000316 µM) was 79.2%, the viability, T/C (second compound 3.16 µM, first compound 0.001 µM) was 71.7% and the viability, T/C (second compound 3.16 µM, first compound 0.00316 µM) was 82.8%. The viability, T/C (second compound 3.16 µM, first compound 0.01 µM) was 75.3%, the viability, T/C [9] was 83% and the viability, T/C [10] was 78.2%. It also gave a viability, T/C (second compound 10 µM, first compound 0.000316 µM) of 83%, a viability, T/C (second compound 10 µM, first compound 0.001 µM) of 66.7% and a viability, T/C (second compound 10 µM, first compound 0.00316 µM) of 78%. It also gave a viability, T/C (second compound 10 µM, first compound 0.01 µM) of 64.5%, a viability, T/C [11] of 92.7% and a viability, T/C [12] of 76.3%.
`CCCS(=O)(=O)Nc1ccc(F)c(C(=O)c2c[nH]c3ncc(-c4ccc(Cl)cc4)cc23)c1F` + Cc1nc(NC(=O)N2CCCC2C(N)=O)sc1-c1ccnc(C(C)(C)C(F)(F)F)c1 showed an IC50 (second compound 0.0316 µM) of 4.36 µM, an IC50 (second compound 0.1 µM) of 3.88 µM and an IC50 (second compound 0.316 µM) of 5.58 µM. For the same compound, the IC50 (second compound 1 µM) was 4.71 µM, the IC50 (second compound 3.16 µM) was 4.23 µM and the IC50 (second compound 10 µM) was 4.46 µM. For the same compound, the viability, T/C [1] was 84.6%, the viability, T/C [2] was 96.3% and the viability, T/C (second compound 0.0316 µM, first compound 0.316 µM) was 67.6%. It also gave a viability, T/C (second compound 0.0316 µM, first compound 1 µM) of 80.9%, a viability, T/C (second compound 0.0316 µM, first compound 3.16 µM) of 68.5% and a viability, T/C (second compound 0.0316 µM, first compound 10 µM) of 2.55%. For the same compound, the viability, T/C [3] was 87.3%, the viability, T/C [4] was 66.7% and the viability, T/C (second compound 0.1 µM, first compound 0.316 µM) was 86.7%. It also gave a viability, T/C (second compound 0.1 µM, first compound 1 µM) of 108%, a viability, T/C (second compound 0.1 µM, first compound 3.16 µM) of 59.9% and a viability, T/C (second compound 0.1 µM, first compound 10 µM) of 4.2%. The viability, T/C [5] was 98.5%, the viability, T/C [6] was 84.8% and the viability, T/C (second compound 0.316 µM, first compound 0.316 µM) was 74.3%. The viability, T/C (second compound 0.316 µM, first compound 1 µM) was 84.8%, the viability, T/C (second compound 0.316 µM, first compound 3.16 µM) was 81.9% and the viability, T/C (second compound 0.316 µM, first compound 10 µM) was 17.3%. For the same compound, the viability, T/C [7] was 78%, the viability, T/C [8] was 84.7% and the viability, T/C (second compound 1 µM, first compound 0.316 µM) was 71.3%. It also gave a viability, T/C (second compound 1 µM, first compound 1 µM) of 67.5%, a viability, T/C (second compound 1 µM, first compound 3.16 µM) of 73.7% and a viability, T/C (second compound 1 µM, first compound 10 µM) of 5.17%. For the same compound, the viability, T/C [9] was 68.8%, the viability, T/C [10] was 66% and the viability, T/C (second compound 3.16 µM, first compound 0.316 µM) was 78.5%. For the same compound, the viability, T/C (second compound 3.16 µM, first compound 1 µM) was 72.5%, the viability, T/C (second compound 3.16 µM, first compound 3.16 µM) was 63.4% and the viability, T/C (second compound 3.16 µM, first compound 10 µM) was 8.66%. It also gave a viability, T/C [11] of 60.4%, a viability, T/C [12] of 61.4% and a viability, T/C (second compound 10 µM, first compound 0.316 µM) of 80%. It also gave a viability, T/C (second compound 10 µM, first compound 1 µM) of 55.6%, a viability, T/C (second compound 10 µM, first compound 3.16 µM) of 70.2% and a viability, T/C (second compound 10 µM, first compound 10 µM) of 13.4%.
